# Reference: patent publication US12312330B2, “1-((S)-1-(3-chloro-5-fluoro-2-((4-(1h-pyrazol-1-yl)-2-methylquinolin-8-yloxy)methyl)phenyl)ethyl)-imidazolidine-2,4-dione derivatives and related compounds as bradykinin (BK) B2 receptor antagonist for treating skin diseases” (Pharvaris GmbH, priority 2019, dated 2025)
# Target: T1, human bradykinin B2 receptor (hB2R) (Homo sapiens, UniProt P30411)
# T1 sequence (P30411 1-391): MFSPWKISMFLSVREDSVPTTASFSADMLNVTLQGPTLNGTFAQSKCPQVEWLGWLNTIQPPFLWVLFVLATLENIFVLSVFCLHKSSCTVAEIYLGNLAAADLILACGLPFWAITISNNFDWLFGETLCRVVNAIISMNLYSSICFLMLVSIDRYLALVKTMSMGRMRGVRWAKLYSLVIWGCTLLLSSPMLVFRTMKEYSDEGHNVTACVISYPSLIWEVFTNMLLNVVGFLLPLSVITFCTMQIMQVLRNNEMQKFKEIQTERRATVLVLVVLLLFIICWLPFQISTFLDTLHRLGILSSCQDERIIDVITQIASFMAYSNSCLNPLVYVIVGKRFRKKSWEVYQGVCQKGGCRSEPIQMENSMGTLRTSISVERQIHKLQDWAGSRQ
# Test: human bradykinin B2 receptor calcium mobilization (hB2R-CaM) assay
# Assay type: cell-based
# Settings: antagonism of bradykinin (EC80) induced calcium mobilization, B2 Bradykinin Receptor Stable Cell Line HTS041C, 25 min pre-incubation; read-out: IC50-value towards human bradykinin B2 receptor (hB2R)
# From the text: The following cell-based human bradykinin B2 receptor calcium mobilization (hB2R-CaM) assay was used to determine the antagonistic activity of compounds selected from the example compounds Nos. 1 to 107 towards human bradykinin B2 receptor (hB2R). The assay is defined herein as a standard in vitro B2 receptor activity assay, which can be used to determine IC50 values of the compounds according to the present invention, e. g. the compounds shown in Examples 1-13.
# The antagonistic activity of compounds according to the present invention was investigated with the hB2R-CaM assay using the B2 Bradykinin Receptor Stable Cell Line HTS041C (Eurofins, St. Charles MO) and the FLIPR Calcium 6 Assay Kit (Molecular Devices, Wokingham, UK) according to the instructions of the providers. CaM assay measurements were performed with a Flexstation 3 System (Molecular Devices) which allows the precise addition of compounds (B2R antagonists) and bradykinin (B2R agonist) to the cells and adjacent continuous recording of the time-dependent CaM assay signals.
# HTS041C cells were cultured in high glucose DMEM cell culture medium (Lonza) supplemented with 10% heat-inactivated FBS (PAN Biotech), 10 mM HEPES, Penicillin/Streptomycin (200 U/mL, 200 μg/mL), lx non-essential amino acids (Lonza), and 250 μg/mL G418 (Invivogen) in cell incubator at 37° C. in a 5% CO2 atmosphere. One day before the CaM assay experiments cells were seeded in 200 μL DMEM cell culture medium with reduced FBS (5%) and without G418 on clear bottom black 96 well plates (ThermoFisher #165305). Cell starvation was carried out by incubation (37° C., 5% CO2) of 70.000 cells/well for 24 h to 28 h. Immediately prior calcium dye-loading the medium was carefully aspirated and cells were washed with Hank's balanced salt solution (HBSS, Gibco) containing Ca^2+, Mg^2+ and 20 mM HEPES, adjusted to pH 7.4 (HBSS+).
# For calcium dye-loading one FLIPR 6 assay aliquot was dissolved in 20 mL HBSS+. 150 μL of the dye loading solution was added to cell plate and incubated for 120 min at 37° C. and 5% CO2. After dye loading the cell plate was immediately transferred to the pre-warmed (37° C.) Flexstation 3 System for CaM assaying.
# Freshly prepared compound (B2 receptor antagonists) dilution series (8 pt, n=2) and bradykinin (B2 receptor agonist) solution in non-binding plates (Costar) were transferred to the Flexstation System (source plate) shortly before starting the experiment. Bradykinin was added in EC80 concentration determined in n>3 preliminary experiments with 8 pt concentration response curves (n=8)). CaM assay was executed by Flexstation 3 System starting with recording of calcium-sensitive dye fluorescence in bottom-read Flex modus with ex/em=485 nm/525 nm, cut off(em)=515 nm After 20 s, 50 μL of 4-fold concentrated compound dilutions were added to the cells resulting in a final DMSO (Sigma) concentration of 0.1% in the cell plate. CaM signals were monitored for 80 s after additions for detection of potential agonistic activities. Prior to bradykinin stimulus compound- and vehicle-treated cells were incubated for 25 min at 37° C. within the Flexstation System. Then 50 μL of a 5-fold concentrated bradykinin solution (HBSS+, 0.1% DMSO) was added to trigger CaM signals (Read out: Max-Min values) which were measured for 80 s post bradykinin stimulus.
# IC50 determinations were performed by 4 parameter logistic model curve fitting of the 8 pt (n=2) compound concentration response curves using XLFIT (IDBS) software.
row,SMILES,IC50 [nM]
1,Cc1cc(-n2cc(F)cn2)c2cccc(OCc3c(Cl)cc(F)cc3[C@H](C)N3CCCC3=O)c2n1 [compound 13],11 to 100
2,Cc1cc(-n2cc(F)cn2)c2cccc(OCc3c(Cl)cc(F)cc3[C@H](C)N3CC(=O)N(C(C)C)C3=O)c2n1 [compound 14],11 to 100
3,Cc1cc(-n2cc(F)cn2)c2cccc(OCc3c(Cl)cc(F)cc3[C@H](C)N3CC(=O)N(CCO)C3=O)c2n1 [compound 15],≤ 10
4,Cc1cc(-n2cc(F)cn2)c2cccc(OCc3c(Cl)cc(F)cc3[C@H](C)N3CCCCC3=O)c2n1 [compound 16],11 to 100
5,Cc1cc(-n2cc(F)cn2)c2cccc(OCc3c(Cl)cc(F)cc3[C@H](C)N3CC(=O)N(C4CC4)C3=O)c2n1 [compound 17],11 to 100
6,Cc1cc(-n2cc(F)cn2)c2cccc(OCc3c(Cl)cc(F)cc3[C@H](C)N3CCOCC3=O)c2n1 [compound 18],11 to 100
7,Cc1cc(-n2cc(F)cn2)c2cccc(OCc3c(Cl)cc(F)cc3[C@H](C)N3CC(=O)NC3=O)c2n1 [compound 19],11 to 100
8,CNC(=O)CN1C(=O)CN([C@@H](C)c2cc(F)cc(Cl)c2COc2cccc3c(-n4cc(F)cn4)cc(C)nc23)C1=O [compound 20],11 to 100
9,Cc1cc(-n2cc(F)cn2)c2cccc(OCc3c(Cl)cc(F)cc3[C@H](C)N3CC(=O)N(CC(=O)N(C)C)C3=O)c2n1 [compound 21],11 to 100
10,Cc1cc(-n2cc(F)cn2)c2cccc(OCc3c(Cl)cc(F)cc3[C@H](C)N3CC(=O)N(CC(=O)O)C3=O)c2n1 [compound 22],11 to 100
11,Cc1cc(-n2cc(F)cn2)c2cccc(OCc3c(Cl)cc(F)cc3[C@H](C)N3CC(=O)N(CCN)C3=O)c2n1 [compound 23],11 to 100
12,Cc1cc(-n2cc(F)cn2)c2cccc(OCc3c(Cl)cc(F)cc3[C@H](C)N3CC(=O)N(CCN(C)C)C3=O)c2n1 [compound 24],11 to 100
13,Cc1cc(-n2cc(F)cn2)c2cccc(OCc3c(Cl)cc(F)cc3[C@H](C)N3CC(=O)NCC3=O)c2n1 [compound 25],11 to 100
14,Cc1cc(-c2ncnn2C)c2cccc(OCc3c(Cl)cc(F)cc3[C@H](C)N3CCCCC3=O)c2n1 [compound 26],≤ 10
15,Cc1cc(-c2ncnn2C)c2cccc(OCc3c(Cl)cc(F)cc3[C@H](C)N3CCCC3=O)c2n1 [compound 27],≤ 10
16,Cc1cc(-n2cc(F)cn2)c2cccc(OCc3c(Cl)cc(F)cc3[C@H](C)N3CC[C@H](O)C3=O)c2n1 [compound 28],101 to 500
17,Cc1cc(-c2ncnn2C)c2cccc(OCc3c(Cl)cc(F)cc3[C@H](C)N3CCOCC3=O)c2n1 [compound 34],≤ 10
18,Cc1cc(-n2cc(F)cn2)c2cccc(OCc3c(Cl)cc(F)cc3[C@H](C)N3CC[C@H](Cl)C3=O)c2n1 [compound 37],≤ 10
19,Cc1cc(-n2cc(F)cn2)c2cccc(OCc3c(Cl)cc(F)cc3[C@H](C)N3C[C@H](C)OCC3=O)c2n1 [compound 38],11 to 100
20,Cc1cc(-n2cc(F)cn2)c2cccc(OCc3c(Cl)cc(F)cc3[C@H](C)N3C[C@@H](C)OCC3=O)c2n1 [compound 39],11 to 100
21,Cc1cc(-c2ncnn2C)c2cccc(OCc3c(Cl)cc(F)cc3[C@H](C)N3C[C@@H](C)OCC3=O)c2n1 [compound 40],≤ 10
22,Cc1cc(-c2ncnn2C)c2cccc(OCc3c(Cl)cc(F)cc3[C@H](C)N3C[C@H](C)OCC3=O)c2n1 [compound 41],≤ 10
23,Cc1cc(-n2cc(F)cn2)c2cccc(OCc3c(Cl)cc(F)cc3[C@H](C)N3CC[C@@H](O)C3=O)c2n1 [compound 42],11 to 100
24,Cc1cc(-c2ncnn2C)c2cccc(OCc3c(Cl)cc(F)cc3[C@H](C)N3CC[C@@H](O)C3=O)c2n1 [compound 43],11 to 100

row,SMILES,IC50 [nM]
1,Cc1cc(-c2ncnn2C)c2cccc(OCc3c(Cl)cc(F)cc3[C@H](C)N3CC[C@H](Cl)C3=O)c2n1 [compound 44],≤ 10
2,Cc1cc(-n2cc(F)cn2)c2cccc(OCc3c(Cl)cc(F)cc3[C@H](C)N3C[C@@H](O)CCC3=O)c2n1 [compound 45],≤ 10
3,Cc1cc(-n2cc(F)cn2)c2cccc(OCc3c(Cl)cc(F)cc3[C@H](C)N3CC(=O)N(C)CC3=O)c2n1 [compound 46],≤ 10
4,Cc1cc(-c2ncnn2C)c2cccc(OCc3c(Cl)cc(F)cc3[C@H](C)N3CC(=O)N(C)CC3=O)c2n1 [compound 47],11 to 100
5,Cc1cc(-n2cc(F)cn2)c2cccc(OCc3c(Cl)cc(F)cc3[C@H](C)N3CCNC(=O)C3=O)c2n1 [compound 50],≤ 10
6,Cc1cc(-n2cc(F)cn2)c2cccc(OCc3c(Cl)cc(F)cc3[C@H](C)N3CCNCC3=O)c2n1 [compound 57],11 to 100
7,Cc1cc(-n2cc(F)cn2)c2cccc(OCc3c(Cl)cc(F)cc3[C@H](C)N3CC(C)CC3=O)c2n1 (some centres unmarked) [compound 62],11 to 100
8,Cc1cc(-c2ncnn2C)c2cccc(OCc3c(Cl)cc(F)cc3[C@H](C)N3CC(C)CC3=O)c2n1 (some centres unmarked) [compound 63],≤ 10
9,Cc1cc(-n2cc(F)cn2)c2cccc(OCc3c(Cl)cc(F)cc3[C@H](C)N3CCC(C)(C)C3=O)c2n1 [compound 64],11 to 100
10,Cc1cc(-c2ncnn2C)c2cccc(OCc3c(Cl)cc(F)cc3[C@H](C)N3CCC(C)(C)C3=O)c2n1 [compound 65],11 to 100
11,CCC1CCC(=O)N([C@@H](C)c2cc(F)cc(Cl)c2COc2cccc3c(-n4cc(F)cn4)cc(C)nc23)C1 (some centres unmarked) [compound 66],11 to 100
12,CCC1CCC(=O)N([C@@H](C)c2cc(F)cc(Cl)c2COc2cccc3c(-c4ncnn4C)cc(C)nc23)C1 (some centres unmarked) [compound 67],≤ 10
13,Cc1cc(-c2ncnn2C)c2cccc(OCc3c(Cl)cc(F)cc3[C@H](C)N3C[C@H](C)NC(=O)C3=O)c2n1 [compound 68],≤ 10
14,Cc1cc(-c2ncnn2C)c2cccc(OCc3c(Cl)cc(F)cc3[C@H](C)N3CC[C@H](N)C3=O)c2n1 [compound 69],11 to 100
15,Cc1cc(-n2cc(F)cn2)c2cccc(OCc3c(Cl)cc(F)cc3[C@H](C)N3C[C@@H](O)CC3=O)c2n1 [compound 72],≤ 10
16,Cc1cc(-c2ncnn2C)c2cccc(OCc3c(Cl)cc(F)cc3[C@H](C)N3C[C@@H](O)CC3=O)c2n1 [compound 73],≤ 10
17,Cc1cc(-c2ncnn2C)c2cccc(OCc3c(Cl)cc(F)cc3[C@H](C)N3CC(=O)N(C)[C@@H](C)C3=O)c2n1 [compound 74],11 to 100
18,Cc1cc(-c2ncnn2C)c2cccc(OCc3c(Cl)cc(F)cc3[C@H](C)N3CC(=O)N[C@H](C)C3=O)c2n1 [compound 75],11 to 100
19,Cc1cc(-n2cc(F)cn2)c2cccc(OCc3c(Cl)cc(F)cc3[C@H](C)N3CCN(C(C)C)CC3=O)c2n1 [compound 76],≤ 10
20,Cc1cc(-n2cc(F)cn2)c2cccc(OCc3c(Cl)cc(F)cc3[C@H](C)N3CCN[C@H](C)C3=O)c2n1 [compound 77],11 to 100
21,CC(=O)N1CCN([C@@H](C)c2cc(F)cc(Cl)c2COc2cccc3c(-n4cc(F)cn4)cc(C)nc23)C(=O)C1 [compound 78],11 to 100
22,Cc1cc(-n2cc(F)cn2)c2cccc(OCc3c(Cl)cc(F)cc3[C@H](C)N3CCN(C(=O)OC(C)(C)C)[C@H](C)C3=O)c2n1 [compound 79],101 to 500
23,Cc1cc(-n2cc(F)cn2)c2cccc(OCc3c(Cl)cc(F)cc3[C@H](C)N3CCN(C(=O)OC(C)(C)C)[C@@H](C)C3=O)c2n1 [compound 80],101 to 500
